The target of experiment [1] is T1, Arachidonate 5-lipoxygenase-activating protein (Homo sapiens, UniProt P20292).
T1 sequence (P20292 whole entry): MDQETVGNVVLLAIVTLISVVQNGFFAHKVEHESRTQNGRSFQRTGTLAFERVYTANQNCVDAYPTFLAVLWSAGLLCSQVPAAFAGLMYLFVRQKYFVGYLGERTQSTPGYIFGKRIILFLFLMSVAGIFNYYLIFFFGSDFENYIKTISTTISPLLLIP
Kind of experiment: The compound was tested for the inhibition of binding of [125I]- L- 691,831 binding to 5-lipoxygenase activating protein (FLAP).

Experiment [2] is filed under the species Homo sapiens. Briefly: Leukotriene synthesis inhibition activity in the Human PMN assay. It is filed as functional, organism-based.
Experiment [3] is filed under the species Homo sapiens. Kind of experiment: Leukotriene synthesis inhibition activity in the Human whole blood assay. The experiment is classed as functional, organism-based.
The target in experiment [4] is T1, Arachidonate 5-lipoxygenase-activating protein. Briefly: The compound was tested for the inhibition of binding of [125I]- L- 691,831 binding to 5-lipoxygenase activating protein.

The structures appear in SMILES notation. Where only a bound is given, the exact number is not on record here.

`O=C(O)CSC(CCCc1ccccc1)(CCc1ccccc1)c1ccc(OCc2ccc3ccccc3n2)cc1` (stereo not given) showed an IC50 in experiment [1] of 4 nM. `c1ccc(COCC(OCc2ccccc2)c2ccc(OCc3ccc4ccccc4n3)cc2)cc1` (stereo not given): the IC50 in the experiment listed under Homo sapiens [2] (Homo sapiens) was determined as 30 nM. For the molecule `CC(C)c1ccc2c(c1)c(SC(C)(C)C)c(CC(C)(C)C(=O)O)n2Cc1ccc(Cl)cc1`, the IC50 turned out to be 23 nM in experiment [1], 2100 nM in the experiment listed under Homo sapiens [3] and 3 nM in the experiment listed under Homo sapiens [2] (Homo sapiens). In turn, `Cc1c(CC(C)(C)C(=O)O)n(Cc2ccc(Cl)cc2)c2ccc(OCc3ccc4ccccc4n3)cc12` had an IC50 in the experiment listed under Homo sapiens [2] (Homo sapiens) of 3 nM. The same measure, in the same setting: under `COc1ccc2c(c1)c(C)c(CC(C)(C)C(=O)O)n2Cc1ccc(Cl)cc1` stands 870 nM. As to `O=C(O)CSC(CCCc1ccc(Cl)cc1)c1ccc(OCc2ccc3ccccc3n2)cc1` (single isomer, unassigned; (+)), in the experiment filed under Homo sapiens [2], the half-maximal inhibitory concentration (IC50) worked out at 5 nM. Same read-out and setting: under `O=C(O)CSC(CCCc1ccc(Cl)cc1)c1ccc(OCc2ccc3ccccc3n2)cc1` (single isomer, unassigned; (-)) stands 10 nM. On to `O=C(O)CSC(CCCc1ccc(Cl)cc1)c1ccc(OCc2ccc3ccccc3n2)cc1` (stereo in doubt; 1), for which the concentration for half-maximal inhibition (IC50) in experiment [1] was 122 nM; in the experiment filed under Homo sapiens [3] it was more than 22000 nM; in the experiment listed under Homo sapiens [2] it was 20 nM. Take `CC(C)(C)Sc1c(CC(C)(C)C(=O)O)n(Cc2ccc(Cl)cc2)c2ccc(OCc3ccc4ccccc4n3)cc12` [QUIFLAPON]: the IC50 in experiment [4] turned out to be 2 nM; in the experiment filed under Homo sapiens [3] it was 500 nM; in the experiment listed under Homo sapiens [2] (Homo sapiens), 3 nM.

Usually IC50 stands for the concentration that gives 50% inhibition.

Source of the values: ChEMBL document CHEMBL1126364, “A new class of leukotriene biosynthesis inhibitors: The discovery of MK0591” (Bioorg Med Chem Lett, 1992).
